From paper PMC2993883 (Journal of Neural Transmission, 2010)

What was measured:
Experiment in all cases: IMAP fluorescence polarization PDE assay, 8-point IC50
Assay type in all cases: biochemical
PDE-3A = PDE-3A (Homo sapiens, UniProt Q14432)
PDE-2A3 = PDE-2A3 (Homo sapiens, UniProt O00408)
PDE-10A1 = PDE-10A1 (Homo sapiens, UniProt Q9Y233)
PDE-4A1 = PDE-4A1 (Homo sapiens, UniProt P27815)
PDE-4A1, sequence (P27815 265-886 limits assumed): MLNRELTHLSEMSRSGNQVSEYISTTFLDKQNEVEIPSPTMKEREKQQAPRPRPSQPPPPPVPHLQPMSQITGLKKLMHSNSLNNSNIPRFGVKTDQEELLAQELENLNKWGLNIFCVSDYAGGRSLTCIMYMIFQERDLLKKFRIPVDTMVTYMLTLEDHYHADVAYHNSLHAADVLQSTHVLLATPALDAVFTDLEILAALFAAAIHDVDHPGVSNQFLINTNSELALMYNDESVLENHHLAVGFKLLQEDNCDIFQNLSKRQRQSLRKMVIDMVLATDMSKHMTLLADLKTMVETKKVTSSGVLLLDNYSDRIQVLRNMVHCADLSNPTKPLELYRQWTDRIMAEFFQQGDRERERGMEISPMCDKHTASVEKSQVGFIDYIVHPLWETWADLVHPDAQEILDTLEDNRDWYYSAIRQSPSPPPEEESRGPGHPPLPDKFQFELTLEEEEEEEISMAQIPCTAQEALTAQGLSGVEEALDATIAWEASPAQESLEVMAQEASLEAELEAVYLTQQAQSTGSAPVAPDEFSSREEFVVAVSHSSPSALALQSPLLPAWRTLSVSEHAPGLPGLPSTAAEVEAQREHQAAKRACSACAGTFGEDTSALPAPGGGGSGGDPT

PDE-10A1, sequence (Q9Y233 1-779 isoform Q9Y233-1): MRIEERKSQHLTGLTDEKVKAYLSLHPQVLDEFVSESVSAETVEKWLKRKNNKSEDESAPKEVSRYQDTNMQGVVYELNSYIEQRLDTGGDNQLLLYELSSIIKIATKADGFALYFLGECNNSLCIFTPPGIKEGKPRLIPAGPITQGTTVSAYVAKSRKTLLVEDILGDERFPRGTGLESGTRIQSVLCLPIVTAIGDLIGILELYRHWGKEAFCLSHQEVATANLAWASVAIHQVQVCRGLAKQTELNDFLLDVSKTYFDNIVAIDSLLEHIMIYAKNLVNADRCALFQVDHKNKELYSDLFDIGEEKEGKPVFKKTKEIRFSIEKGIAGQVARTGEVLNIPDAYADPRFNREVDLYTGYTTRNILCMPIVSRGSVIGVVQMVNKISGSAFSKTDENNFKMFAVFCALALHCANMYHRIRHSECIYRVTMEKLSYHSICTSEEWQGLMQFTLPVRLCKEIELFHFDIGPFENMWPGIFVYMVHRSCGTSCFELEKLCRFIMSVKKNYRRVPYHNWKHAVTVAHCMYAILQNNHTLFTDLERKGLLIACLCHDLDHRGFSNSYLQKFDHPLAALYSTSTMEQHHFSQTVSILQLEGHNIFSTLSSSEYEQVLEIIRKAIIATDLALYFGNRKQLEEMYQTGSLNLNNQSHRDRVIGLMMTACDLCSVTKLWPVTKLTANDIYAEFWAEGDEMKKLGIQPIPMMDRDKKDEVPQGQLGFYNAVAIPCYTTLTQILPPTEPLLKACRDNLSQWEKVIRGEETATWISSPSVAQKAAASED
PDE-2A3, sequence (O00408 2-941): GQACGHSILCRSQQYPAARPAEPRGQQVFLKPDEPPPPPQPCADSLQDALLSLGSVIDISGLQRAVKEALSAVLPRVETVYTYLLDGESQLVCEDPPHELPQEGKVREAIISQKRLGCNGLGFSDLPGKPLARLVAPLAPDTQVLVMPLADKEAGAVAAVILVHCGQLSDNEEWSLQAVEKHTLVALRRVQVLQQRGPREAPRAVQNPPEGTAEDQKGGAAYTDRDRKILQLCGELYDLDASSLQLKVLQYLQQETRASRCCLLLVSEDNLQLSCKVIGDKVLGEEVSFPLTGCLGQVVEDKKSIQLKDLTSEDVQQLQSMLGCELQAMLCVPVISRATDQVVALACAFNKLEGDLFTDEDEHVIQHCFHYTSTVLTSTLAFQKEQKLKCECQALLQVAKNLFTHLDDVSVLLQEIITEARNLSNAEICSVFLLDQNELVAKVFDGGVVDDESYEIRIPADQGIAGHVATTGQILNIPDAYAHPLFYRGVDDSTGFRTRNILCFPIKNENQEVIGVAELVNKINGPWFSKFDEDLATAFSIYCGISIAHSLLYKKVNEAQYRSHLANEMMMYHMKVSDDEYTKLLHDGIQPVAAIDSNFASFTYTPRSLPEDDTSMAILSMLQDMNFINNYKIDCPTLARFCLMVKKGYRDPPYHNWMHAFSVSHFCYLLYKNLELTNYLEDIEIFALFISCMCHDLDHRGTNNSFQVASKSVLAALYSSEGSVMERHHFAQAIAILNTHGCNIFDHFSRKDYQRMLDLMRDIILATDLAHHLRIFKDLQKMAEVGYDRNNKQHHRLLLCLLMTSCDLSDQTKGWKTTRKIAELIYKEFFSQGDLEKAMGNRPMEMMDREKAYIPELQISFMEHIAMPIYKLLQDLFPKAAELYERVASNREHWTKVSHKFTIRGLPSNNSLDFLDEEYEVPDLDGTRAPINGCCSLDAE
PDE-3A, sequence (Q14432 whole entry): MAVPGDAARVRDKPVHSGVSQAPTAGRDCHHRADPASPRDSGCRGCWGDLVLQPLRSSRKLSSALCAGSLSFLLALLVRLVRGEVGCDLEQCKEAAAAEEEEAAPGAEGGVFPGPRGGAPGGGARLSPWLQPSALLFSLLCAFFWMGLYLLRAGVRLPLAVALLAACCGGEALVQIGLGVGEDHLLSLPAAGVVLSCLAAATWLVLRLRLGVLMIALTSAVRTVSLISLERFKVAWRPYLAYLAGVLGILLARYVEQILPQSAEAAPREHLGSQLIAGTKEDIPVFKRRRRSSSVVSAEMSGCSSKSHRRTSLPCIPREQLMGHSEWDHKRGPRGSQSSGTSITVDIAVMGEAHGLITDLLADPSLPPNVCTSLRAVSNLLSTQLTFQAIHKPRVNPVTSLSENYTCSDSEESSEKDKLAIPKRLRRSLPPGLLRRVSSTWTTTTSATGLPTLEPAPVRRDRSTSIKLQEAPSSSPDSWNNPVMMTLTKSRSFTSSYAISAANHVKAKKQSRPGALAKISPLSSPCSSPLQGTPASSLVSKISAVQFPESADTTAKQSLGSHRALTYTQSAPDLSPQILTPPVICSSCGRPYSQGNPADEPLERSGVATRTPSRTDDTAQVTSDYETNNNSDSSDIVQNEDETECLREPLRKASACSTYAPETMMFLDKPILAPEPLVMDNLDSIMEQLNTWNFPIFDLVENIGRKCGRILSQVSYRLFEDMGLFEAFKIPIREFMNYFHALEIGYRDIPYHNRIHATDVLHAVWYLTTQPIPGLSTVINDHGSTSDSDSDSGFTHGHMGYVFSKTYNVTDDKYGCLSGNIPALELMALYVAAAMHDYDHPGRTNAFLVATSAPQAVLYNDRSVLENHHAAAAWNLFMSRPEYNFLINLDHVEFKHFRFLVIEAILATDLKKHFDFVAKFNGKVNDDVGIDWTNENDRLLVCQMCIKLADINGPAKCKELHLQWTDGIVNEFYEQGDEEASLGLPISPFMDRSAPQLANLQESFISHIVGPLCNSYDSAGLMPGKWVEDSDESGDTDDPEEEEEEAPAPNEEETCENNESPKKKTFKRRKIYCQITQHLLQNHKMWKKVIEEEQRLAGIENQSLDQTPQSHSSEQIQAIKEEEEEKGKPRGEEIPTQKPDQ

## CCC1C(C)=NN=C(c2ccc(OC)c(OC)c2)c2cc(OC)c(OC)cc21 (racemic) [tofisopam, 1-(3,4-dimethoxyphenyl)-5-ethyl-7,8-dimethoxy-4-methyl-5H-2,3-benzodiazepine]
PDE-3A
  IC50: 1980 nM
PDE-2A3
  IC50: 2110 nM
PDE-10A1
  IC50: 920 nM
PDE-4A1
  IC50: 420 nM
